According to article PMC10584170, “Machine learning-based phenotypic imaging to characterise the targetable biology of Plasmodium falciparum male gametocytes for the development of transmission-blocking antimalarials” (PLOS Pathogens, 2023):
Like-named read-outs stand apart in the source and are kept apart here.

Columns and labels:
HepG2 cells = experiment: HepG2 cytotoxicity counter-screen; conditions: cytotoxic activity against HepG2 cells
[1] = system: P. falciparum male gametocytes; experiment: P. falciparum Dual Gamete Formation Assay (PfDGFA), male readout (exflagellation); assay type: cell-based, Plasmodium falciparum NF54; conditions: for Selectivity Ratio M: HepG2 Tox50 versus male IC50; for IC50: read-out: Male IC50; for HitlevelM: number of replicates with >50% inhibition in the male readout
Method in brief: (§1)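 Male and female gamete formation were quantified by microscopy image analysis following 24 h incubation of mature NF54 gametocytes with compound and activation at 28°C with xanthurenic acid.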

[2] = system: P. falciparum female gametocytes; experiment: P. falciparum Dual Gamete Formation Assay (PfDGFA), female readout (Pfs25-positive female gametes); assay type: cell-based, Plasmodium falciparum NF54; conditions: for Selectivity ratio F: HepG2 Tox50 versus female IC50; for IC50: read-out: Female IC50; for HitlevelF: number of replicates with >50% inhibition in the female readout
Method in brief: as §1

[3] = PfDGFA at 2µM, 24h preincubation with gametocytes, average of replicates
[4] = PfDGFA at 2µM, 24h preincubation with gametocytes, replicate R1
[5] = PfDGFA at 2µM, 24h preincubation with gametocytes, replicate R3
[6] = PfDGFA at 2µM, 24h preincubation with gametocytes, replicate R4
[7] = PfDGFA, 24 h incubation with gametocytes before induction, exflagellation readout
[8] = PfDGFA, 24 h incubation with gametocytes before induction, female gamete readout
[9] = 2µM, 24h preincubation with gametocytes prior to induction of gametogenesis, average of replicates
[10] = 2µM, 24h preincubation with gametocytes prior to induction of gametogenesis, replicate R1
[11] = 2µM, 24h preincubation with gametocytes prior to induction of gametogenesis, replicate R3
[12] = 2µM, 24h preincubation with gametocytes prior to induction of gametogenesis, replicate R4

SMILES | Tox50 (HepG2 cells) | Selectivity Ratio M [1] | HitlevelM ([1]; 2µM) | Selectivity ratio F [2] | HitlevelF ([2]; 2µM) | Average inhibition male (%) [1, 3] | % inhibition male (individual replicates) R1 [1, 4] | % inhibition male (individual replicates) R3 [1, 5] | % inhibition male (individual replicates) R4 [1, 6] | IC50 [1, 7] | Average inhibition female (%) [2, 3] | % inhibition female (individual replicates) R1 [2, 4] | % inhibition female (individual replicates) R3 [2, 5] | % inhibition female (individual replicates) R4 [2, 6] | IC50 [2, 8] | other results
Br.CC[C@H]1CN2CCc3cc(OC)c(OC)cc3[C@@H]2C[C@@H]1C[C@H]1NCCc2c1cc(OC)c(O)c2I [TCMDC-131829] | 6.35 µM | 7.59 | 4 | 21.58 | 4 | – | – | – | – | – | – | – | – | – | – | IC50 ([1]; Plasmodium falciparum, 24 h): 840 nM; inhibition at 2 µM ([1]; Plasmodium falciparum, read-out: % inhibition male (individual replicates) R1): 84.6%; inhibition at 2 µM ([1]; Plasmodium falciparum, read-out: % inhibition male (individual replicates) R2): 83.8%; inhibition at 2 µM ([1]; Plasmodium falciparum, read-out: % inhibition male (individual replicates) R3): 88.6%; inhibition at 2 µM ([1]; Plasmodium falciparum, read-out: % inhibition male (individual replicates) R4): 95.7%; inhibition at 2 µM ([1]; Plasmodium falciparum, read-out: Average inhibition male (%)): 88.2%; IC50 ([2]; Plasmodium falciparum, 24 h): 0.29 µM; inhibition at 2 µM ([2]; Plasmodium falciparum, read-out: % inhibition female (individual replicates) R1): 83.8%; inhibition at 2 µM ([2]; Plasmodium falciparum, read-out: % inhibition female (individual replicates) R2): 92.3%; inhibition at 2 µM ([2]; Plasmodium falciparum, read-out: % inhibition female (individual replicates) R3): 106%; inhibition at 2 µM ([2]; Plasmodium falciparum, read-out: % inhibition female (individual replicates) R4): 88.5%; inhibition at 2 µM ([2]; Plasmodium falciparum, read-out: Average inhibition female (%)): 92.8%
N=C(N)NCCN(Cc1ccccc1)c1ccc(Cl)cc1 [TCMDC-131838] | 48.68 µM | 72.58 | – | 7.49 | – | – | – | – | – | – | – | – | – | – | – | inhibition at 2 µM ([1]; Plasmodium falciparum, 2µM, 24h preincubation with gametocytes, average of replicates, read-out: Average inhibition male (%)): 98.3%; inhibition at 2 µM ([1]; Plasmodium falciparum, 2µM, 24h preincubation with gametocytes, replicate R1, read-out: % inhibition male (individual replicates) R1): 96.5%; inhibition at 2 µM ([1]; Plasmodium falciparum, 2µM, 24h preincubation with gametocytes, replicate R2, read-out: % inhibition male (individual replicates) R2): 98.5%; inhibition at 2 µM ([1]; Plasmodium falciparum, 2µM, 24h preincubation with gametocytes, replicate R3, read-out: % inhibition male (individual replicates) R3): 97.4%; inhibition at 2 µM ([1]; Plasmodium falciparum, 2µM, 24h preincubation with gametocytes, replicate R4, read-out: % inhibition male (individual replicates) R4): 101%; IC50 ([1]; Plasmodium falciparum, PfDGFA, 24 h incubation with gametocytes before induction, exflagellation readout): 670 nM; inhibition at 2 µM ([2]; Plasmodium falciparum, 2µM, 24h preincubation with gametocytes, average of replicates, read-out: Average inhibition female (%)): 61.5%; inhibition at 2 µM ([2]; Plasmodium falciparum, 2µM, 24h preincubation with gametocytes, replicate R1, read-out: % inhibition female (individual replicates) R1): 40.2%; inhibition at 2 µM ([2]; Plasmodium falciparum, 2µM, 24h preincubation with gametocytes, replicate R2, read-out: % inhibition female (individual replicates) R2): 88.5%; inhibition at 2 µM ([2]; Plasmodium falciparum, 2µM, 24h preincubation with gametocytes, replicate R3, read-out: % inhibition female (individual replicates) R3): 50%; inhibition at 2 µM ([2]; Plasmodium falciparum, 2µM, 24h preincubation with gametocytes, replicate R4, read-out: % inhibition female (individual replicates) R4): 67.4%; IC50 ([2]; Plasmodium falciparum, PfDGFA, 24 h incubation with gametocytes before induction, female gamete readout): 6.5 µM
COc1cc2nc(NCCCN3CCCCC3)nc(NCc3ccccc3)c2cc1OC [TCMDC-132012] | 10.87 µM | 5.75 | 3 | 1.71 | 4 | 71.6% | 87.9% | 87.5% | 91.8% | 1890 nM | 56.5% | 53.1% | 57.0% | 64.1% | 6.34 µM | –
CCc1c(CCNCCCCCCNC(C)(C)Cc2ccc3c(c2CC)OCO3)ccc(OC)c1OC.Cl [TCMDC-132055] | 3.55 µM | 2.57 | 4 | 0.81 | 1 | 75.9% | 71.0% | 61.7% | 83.6% | 1380 nM | 27.4% | 20.6% | -1.3% | 28.0% | 4.4 µM | –
CCc1c(CCNCCCC(C)CCNCCc2ccc(OC)c(OC)c2CC)ccc(OC)c1OC.Cl (stereo not shown) [TCMDC-132065] | 3.92 µM | 2.01 | – | 0.73 | – | – | – | – | – | 1950 nM | – | – | – | – | 5.38 µM | Average inhibition male (%) [1, 9]: 50.4%; % inhibition male (individual replicates) R1 [1, 10]: 69.1%; % inhibition male (individual replicates) R3 [1, 11]: 65.3%; % inhibition male (individual replicates) R4 [1, 12]: 65.1%; HitlevelM ([1]; 2µM, 24h preincubation): 3; Average inhibition female (%) [2, 9]: 11.1%; % inhibition female (individual replicates) R1 [2, 10]: 14.0%; % inhibition female (individual replicates) R3 [2, 11]: -5.8%; % inhibition female (individual replicates) R4 [2, 12]: 27.9%; HitlevelF ([2]; 2µM, 24h preincubation): 0
COc1cccc(CCc2c(CCNCCCCCCNCCc3ccccc3)ccc(OC)c2OC)c1.Cl [TCMDC-132105] | 2.82 µM | 2.34 | 3 | 4.54 | 2 | 79.5% | 90.7% | 81.0% | 99.1% | 1200 nM | 52.1% | 47.4% | 59.7% | 72.0% | 0.62 µM | –
COc1ccc(CNC2CCN(C)CC2)cc1-c1ccc(S(=O)(=O)NCc2ccccc2)s1.O=C(O)C(F)(F)F [TCMDC-132253] | 5.43 µM | 3.9 | 4 | 1.37 | 0 | 82.6% | 86.4% | 70.7% | 89.6% | 1390 nM | 28.1% | 31.4% | 13.9% | 24.4% | 3.96 µM | –
COc1ccc(CNC2CCN(C)CC2)cc1-c1ccc(S(=O)(=O)NCc2ccccc2)c(F)c1.O=C(O)C(F)(F)F [TCMDC-132262] | 3.59 µM | 1.94 | 3 | 0.84 | 0 | 74.3% | 68.8% | – | 79.4% | 1850 nM | 25.6% | 21.9% | 30.7% | 17.0% | 4.28 µM | –
